“And” between values parts separate entries of the source, which are not always exact repeats. Identical values can stand only once. Like-named read-outs stand apart in the source and are kept apart here.
Assays:
[1] = test system: TPA-induced ear edema in ICR mice; conditions: mouse, in vivo
[2] = test system: PBQ-induced writhing in ICR mice; assay: animal or person; assay type: in vivo, mouse; conditions: for Relative Potency (Writhing Test) / Writhing Test ED50: mouse, in vivo; for Writhing Test ED50 / ED50: ip; for ED50: Mus musculus, read-out: Writhing Test ED50
[3] = target: T1, CAP-activated channels in cultured neonatal rat dorsal root ganglion (DRG) neurons (Rattus norvegicus, UniProt O35433); assay type: cell-based; set-up: key: + = CAP; ++ = 10 CAP; +++ = 100 CAP
T1 construct: extracellular application of the compounds to cultured neonatal rat dorsal root ganglion (DRG) neurons; endogenous in cells; host or cells: primary cultured DRG neurons from 1 or 2 day old neonatal rats

[4] = target: T2, vanilloid receptor (rat spinal cord membrane preparations) (Rattus norvegicus, UniProt O35433); assay: biochemical; assay type: binding
T2 construct: determined on membrane preparations from rat spinal cord; from tissue; host or cells: rat spinal cord membranes

[5] = test system: rat eye (eye-wiping response); conditions: in vivo
[6] = test system: acetic acid-induced writhing in ICR mice; assay: animal or person; assay type: in vivo, mouse; conditions: for ED50: Mus musculus, ip, read-out: Writhing Test ED50
DRG neurons = assay: cells; assay type: cell-based; conditions: Rattus norvegicus, DRG neuron, 10 min, read-out: 45Ca Influx EC50

T2 sequence (O35433 whole entry): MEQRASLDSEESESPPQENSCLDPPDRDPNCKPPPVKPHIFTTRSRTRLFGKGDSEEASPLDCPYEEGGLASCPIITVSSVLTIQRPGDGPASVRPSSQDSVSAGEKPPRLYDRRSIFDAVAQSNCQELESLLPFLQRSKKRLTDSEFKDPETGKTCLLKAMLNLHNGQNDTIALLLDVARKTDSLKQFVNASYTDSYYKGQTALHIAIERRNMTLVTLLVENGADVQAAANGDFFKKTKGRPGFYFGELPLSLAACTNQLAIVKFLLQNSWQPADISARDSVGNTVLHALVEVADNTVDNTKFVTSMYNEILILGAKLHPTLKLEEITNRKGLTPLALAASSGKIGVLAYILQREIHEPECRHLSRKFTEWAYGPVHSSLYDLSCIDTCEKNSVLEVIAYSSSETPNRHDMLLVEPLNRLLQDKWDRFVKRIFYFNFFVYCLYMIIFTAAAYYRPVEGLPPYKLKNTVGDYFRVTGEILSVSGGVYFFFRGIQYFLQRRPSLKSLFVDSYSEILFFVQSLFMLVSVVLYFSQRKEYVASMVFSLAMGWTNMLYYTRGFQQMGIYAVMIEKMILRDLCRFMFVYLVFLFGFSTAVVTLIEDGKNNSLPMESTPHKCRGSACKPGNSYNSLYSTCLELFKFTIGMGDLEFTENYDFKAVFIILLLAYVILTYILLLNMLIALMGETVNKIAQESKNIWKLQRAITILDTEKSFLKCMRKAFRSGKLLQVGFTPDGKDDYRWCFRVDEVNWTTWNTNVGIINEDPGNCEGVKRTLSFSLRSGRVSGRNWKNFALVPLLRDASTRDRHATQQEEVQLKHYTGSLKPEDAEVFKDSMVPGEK
T1 sequence (O35433 whole entry): as above

| Compound | Ear Edema Assay ID50 [1] | Relative Potency (Ear Edema Assay) [1] | Relative Potency (Writhing Test) [2] | Writhing Test ED50 [2] | Activations [3] | further results |
| --- | --- | --- | --- | --- | --- | --- |
| 2-(3,4-Dimethylbenzyl)-3-{[(4-hydroxy-3-methoxybenzyl)amino]carbothioyl}propyl 3,4-Dimethylbenzoate [7b-VI] | 50 μg/ear | 0.06 | 150 | 0.002 mg/kg | +++ | Ki ([4]; read-out: Affinities (Ki)): 184 nM |
| 2-(3,4-Dimethylbenzyl)-3-{[(4-hydroxy-3-methoxybenzyl)amino]carbothioyl}propyl Pivalate [7b-I] | 18 μg/ear | 0.17 | 600 | 0.0005 mg/kg | ++ | MPP: moderate pain-producing potency [5]: 0.002%; RPP: relative pain-producing potency [5]: 15; times more potent than CAP (receptor binding) [4]: ca. 280 times |
| 2-(3,4-Dimethylbenzyl)-3-{[(4-hydroxy-3-methoxybenzyl)amino]carbothioyl}propyl benzoate [7b-V] | 50 μg/ear | 0.06 | 43 | 0.007 mg/kg | ++ | Ki ([4]; read-out: Affinities (Ki)): 409 nM |
| 2-(4-Chlorobenzyl)-3-{[(4-hydroxy-3-methoxybenzyl)amino]carbothioyl}propyl Benzoate [7c-V] | 17 μg/ear | 0.18 | 25 | 0.012 mg/kg | ++ | – |
| 2-(4-Chlorobenzyl)-3-{[(4-hydroxy-3-methoxybenzyl)amino]carbothioyl}propyl Pivalate [7c-I] | 22 μg/ear | 0.14 | 60 | 0.005 mg/kg | ++ | Ki ([4]; read-out: Affinities (Ki)): 54.4 nM |
| 2-(4-t-Butylbenzyl)-3-{[(4-hydroxy-3-methoxybenzyl)amino]carbothioyl}propyl Benzoate [7d-V] | 30 μg/ear | 0.1 | 200 | 0.0015 mg/kg | ++ | Ki ([4]; read-out: Affinities (Ki)): 60.2 nM |
| 2-(4-t-Butylbenzyl)-3-{[(4-hydroxy-3-methoxybenzyl)amino]carbothioyl}propyl Pivalate [7d-I] | 5 μg/ear | 0.6 | 300 | 0.001 mg/kg | ++ | % Reduction of response to 0.001% capsaicin [5]: 0 (0.1) %; MPP: moderate pain-producing potency [5]: 0.003%; RPP: relative pain-producing potency [5]: 10; times more potent than CAP (receptor binding) [4]: ~490 times |
| 2-Benzyl-3-{[(4-hydroxy-3-methoxybenzyl)amino]carbothioyl}propyl Benzoate [7a-V] | 20 μg/ear | 0.15 | 15 | 0.02 mg/kg | ++ | % Reduction of response to 0.001% capsaicin [5]: 0 (0.1) % |
| 2-Benzyl-3-{[(4-hydroxy-3-methoxybenzyl)amino]carbothioyl}propyl Hexanoate [7a-III] | – | – | 60 | 0.005 mg/kg | ++ | Ki ([4]; read-out: Affinities (Ki)): 632 nM |
| 2-Benzyl-3-{[(4-hydroxy-3-methoxybenzyl)amino]carbothioyl}propyl Pivalate [7a-I] | 25 μg/ear | 0.12 | 150 | 0.002 mg/kg | +++ | – |
| 2-Benzyl-3-{[(4-hydroxy-3-methoxybenzyl)amino]carbothioyl}propyl Stearate [7a-IV] | – | – | 15 | 0.02 mg/kg | + | Ki ([4]; read-out: Affinities (Ki)): 1870 nM |
| COc1cc(CNC(=S)NCC(COC(=O)C(C)C)Cc2ccccc2)ccc1O (stereo not shown) [7a-II, 2-Benzyl-3-{[(4-hydroxy-3-methoxybenzyl)amino]carbothioyl}propyl 2-Methyl Propanoate] | – | – | 20 | – | +++ | ED50 [2]: 0.015 mg/kg; Ki [4]: 133 nM |
| COCOc1ccc(CNC(=S)NCC(COC(=O)C(C)(C)C)Cc2ccc(C)c(C)c2)cc1OC (stereo not shown) [7b-Ia] | – | – | – | – | – | Ki [4]: 876 nM |
| COc1cc(CNC(=S)NCC(COCc2ccccc2)Cc2ccccc2)ccc1O (stereo not shown) [9a, N-[2-Benzyl-3-(benzyloxy)propyl]-N′-(4-hydroxy-3-methoxybenzyl)thiourea] | – | – | – | – | ++ | Ki [4]: 148 nM |
| COc1cc(CNC(=S)NCC(COCc2ccccc2)Cc2ccc(Cl)cc2)ccc1O (stereo not shown) [9c, N-[3-Benzyloxy-2-(4-chlorobenzyl)propyl]-N′-(4-hydroxy-3-methoxybenzyl)thiourea] | – | – | – | – | ++ | Ki [4]: 659 nM |
| COc1cc(CNC(=S)NCC(COC(=O)C(C)(C)C)Cc2ccc(C)c(C)c2)ccc1OCC(=O)O (stereo not shown) [19a, 2,2-Dimethyl-propionic Acid 2-[3-(4-Carboxymethoxy-3-methoxy-benzyl)-thioureidomethyl]-3-(3,4-dimethyl-phenyl)-propyl Ester] | – | – | – | – | – | ED50 [6]: 0.431 mg/kg; EC50 (DRG neurons): 7770 ± 800 nM |
| COc1cc(CNC(=S)NCC(COC(=O)C(C)(C)C)Cc2ccc(C(C)(C)C)cc2)ccc1OCC(=O)O (stereo not shown) [19b, 2,2-Dimethyl-propionic Acid 3-(4-t-Butyl-phenyl)-2-[3-(4-carboxymethoxy-3-methoxy-benzyl)-thioureidomethyl]-propyl Ester] | – | – | – | – | – | ED50 [6]: 0.365 mg/kg; EC50 (DRG neurons): 12300 ± 1580 nM |
| COc1cc(CNC(=S)NCC(COC(=O)C(C)(C)C)Cc2ccc(C)c(C)c2)ccc1OC(=O)CCC(=O)O (stereo not shown) [23a, Succinic Acid Mono-(4-{3-[3-(3,4-dimethyl-phenyl)-2-(2,2-dimethyl-propionyloxymethyl)-propyl]-thioureidomethyl}-2-methoxy-phenyl) Ester] | – | – | – | – | – | ED50 [6]: 0.0531 mg/kg; EC50 (DRG neurons): 7040 ± 1300 nM |
| COc1cc(CNC(=S)NCC(COC(=O)C(C)(C)C)Cc2ccc(C(C)(C)C)cc2)ccc1OC(=O)CCC(=O)O (stereo not shown) [23b, Succinic Acid Mono-(4-{3-[3-(4-t-butyl-phenyl)-2-(2,2-dimethylpropionyloxymethyl)-propyl]-thioureidomethyl}-2-methoxy-phenyl) Ester] | – | – | – | – | – | ED50 [6]: 0.06 mg/kg; EC50 (DRG neurons): 7000 ± 1200 nM |
| COc1cc(CC(=O)NCC(COC(=O)C(C)(C)C)Cc2ccc(C)c(C)c2)ccc1OCCN (stereo not shown) [28a, 2,2-Dimethyl Propionic Acid 2-({2-[4-(2-Aminoethoxy)-3-methoxyphenyl]acetylamino}methyl)-3-(3,4-dimethylphenyl)propyl Ester] | – | – | – | – | – | ED50 [6]: 0.00096 mg/kg; analgesic activity (in words) ([6]; mouse, in vivo): the most potent one and more potent than DA-5018; EC50 (DRG neurons): 1570 ± 230 nM |
| COc1cc(CC(=O)NCC(COC(=O)C(C)(C)C)Cc2ccc(C(C)(C)C)cc2)ccc1OCCN (stereo not shown) [28b, 2,2-Dimethyl Propionic Acid 2-({2-[4-(2-Aminoethoxy)-3-methoxyphenyl]acetylamino}methyl)-3-(4-t-butylphenyl)propyl Ester] | – | – | – | – | – | ED50 [6]: 0.00812 mg/kg; EC50 (DRG neurons): 878 ± 170 nM |
| COc1cc(CNC(=S)NC[C@H](COC(=O)C(C)(C)C)Cc2ccccc2)ccc1O [(R)-7a-I] | – | – | 38 | – | +++ | ED50 [2]: 0.008 mg/kg; Ki [4]: 18.4 nM |
| CC(=O)Oc1ccccc1C(=O)O [Aspirin, reference compound] | – | – | 0.086 | – | – | ED50 [2]: 3.5 mg/kg |
| COc1cc(CNC(=O)CCCC/C=C/C(C)C)ccc1O [Capsaicin, reference compound] | 3 μg/ear | – | – | – | – | antiinflammatory activity in the TPA ear edema assay (in words) [1]: strong anti-edema activity; EC50 (DRG neurons): 435 nM; ED50 [2]: 0.3 mg/kg; % Reduction of response to 0.001% capsaicin [5]: 55 (0.1) % and 35 (0.01) %; MPP: moderate pain-producing potency [5]: 0.0003%; response to 0.001% CAP challenge 6 h posttreatment (in words) [5]: attenuated eye-wiping response |
| COc1ccc2c(c1)c(CC(=O)O)c(C)n2C(=O)c1ccc(Cl)cc1 [Indomethacin, reference compound] | – | – | 0.75 | – | – | ED50 [2]: 0.4 mg/kg |
| CN1CC[C@]23c4c5ccc(O)c4O[C@H]2[C@@H](O)C=C[C@H]3[C@H]1C5 [Morphine, reference compound] | – | – | 0.3 | – | – | ED50 [2]: 1 mg/kg |
| CCCCCCCC/C=C\CCCCCCCC(=O)NCc1ccc(O)c(OC)c1 [Olvanil, reference compound] | 30 μg/ear | 0.1 | 10 | – | – | ED50 [6]: 0.0174 mg/kg; antiinflammatory activity in the TPA ear edema assay (in words) [1]: weak topical activity; ED50 [2]: 0.03 mg/kg; % Reduction of response to 0.001% capsaicin [5]: 0.1%; MPP: moderate pain-producing potency [5]: WP^c |
| C=C(C)[C@]12C[C@@H](C)[C@@]34O[C@](Cc5ccccc5)(O[C@@H]1[C@@H]3C=C(COC(=O)Cc1ccc(O)c(OC)c1)C[C@]1(O)C(=O)C(C)=C[C@@H]41)O2 [RTX, Resiniferatoxin, reference compound] | 0.002 μg/ear | 1,500 | 30,000 | – | – | MPP: moderate pain-producing potency [5]: 0.0001%; RPP: relative pain-producing potency [5]: 300; pungency, fold more potent than CAP [5]: 3 fold; Ki [4]: 0.023 nM |
| COCOc1ccc(CNC(=S)NCC(COC(=O)C(C)(C)C)Cc2ccccc2)cc1OC (stereo not shown) [compound 10] | – | – | – | – | ++ | Ki [4]: 146 nM |
| (S)-2-Benzyl-3-{[(4-hydroxy-3-methoxybenzyl)amino]carbothioyl}propyl Pivalate [(S)-7a-I] | – | – | 33 | 0.009 mg/kg | ++ | – |

Source: patent US6476076B1 (priority 1999, dated 2002)
